# Source: the supplement of paper PMC6045584
# ± gives the standard deviation of the averaged measurements.
# Compound: CC(=O)O[C@H]1C(=O)[C@@]2(C)[C@H]([C@H](OC(=O)c3ccccc3)[C@]3(O)C[C@H](OC(=O)[C@H](O)[C@@H](NC(=O)c4ccccc4)c4ccccc4)C(C)=C1C3(C)C)[C@]1(OC(C)=O)CO[C@@H]1C[C@@H]2O [PACLITAXEL]
# Experiment: surviving fraction relative to DMSO-only wells; higher = less growth inhibition
# Details: 50 nM; exposure time: 5 days
# How it was run: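 Viability was determined by CellTiter-Glo luminescence, expressed as surviving fraction normalised to the median of DMSO-only wells. The cells were log-phase tumour cell lines seeded at 250–500 per well in 384-well plates and, after 24 hours, exposed continuously for five days to inhibitors at 0.5, 1, 5, 10, 50, 100, 500 and 1000 nM. Three screens per line were run, keeping only lines with replicate Pearson r >0.7 and median Z' >0.3.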
row,Test System,surviving fraction
1,CASKI CERVIX,0.037 ± 0.005
2,COLO320DM LARGE INTESTINE,0.525 ± 0.033
3,MDAMB361 BREAST,0.585 ± 0.041
4,HOSMNG BONE,0.29 ± 0.031
5,A549 LUNG,0.182 ± 0.011
6,CAL51 BREAST,0.0427 ± 0.0018
7,OSHN BONE,0.0273 ± 0.00058
8,MCF7 BREAST,0.372 ± 0.01
9,MDAMB134 BREAST,0.587 ± 0.11
10,NCIH441 LUNG,0.261 ± 0.013
11,OS25HAL BONE,0.077 ± 0.0062
12,HCC1954 BREAST,0.0897 ± 0.0025
13,22RV1 PROSTATE,0.0603 ± 0.0061
14,MDAMB231 BREAST,0.121 ± 0.0031
15,HCC38 BREAST,0.112 ± 0.053
16,HU09 BONE,0.0367 ± 0.0029
17,SAOS2 BONE,0.0527 ± 0.004
18,MDAMB436 BREAST,0.192 ± 0.03
19,93VU HEADNECK,0.157 ± 0.011
20,KPD BONE,0.338 ± 0.015
21,SYO1 SYNOVIAL,0.056 ± 0.0057
22,CAL120 BREAST,0.105 ± 0.003
23,HCC1395 BREAST,0.419 ± 0.16
24,SUM149.B1*.S BREAST,0.1 ± 0.0056

# Same assay, conditions: 100 nM; exposure time: 5 days
row,Test System,surviving fraction
1,C33A CERVIX,0.173 ± 0.047
2,PCI30 HEADNECK,0.0737 ± 0.016
3,HUO3N1 BONE,0.115 ± 0.0063
4,T47D BREAST,0.222 ± 0.022
5,HELA CERVIX,0.0237 ± 0.0039
6,NY BONE,0.026 ± 0.0076
7,CASKI CERVIX,0.0387 ± 0.0067
8,COLO320DM LARGE INTESTINE,0.292 ± 0.014
9,MDAMB361 BREAST,0.593 ± 0.056
10,HOSMNG BONE,0.12 ± 0.0079
11,A549 LUNG,0.186 ± 0.01
12,CAL51 BREAST,0.0332 ± 0.0037
13,OSHN BONE,0.0243 ± 0.00058
14,MCF7 BREAST,0.356 ± 0.0077
15,MDAMB134 BREAST,0.4935 ± 0.00071
16,NCIH441 LUNG,0.303 ± 0.018
17,OS25HAL BONE,0.0677 ± 0.011
18,HCC1954 BREAST,0.071 ± 0.0028
19,22RV1 PROSTATE,0.053 ± 0.0036
20,MDAMB231 BREAST,0.121 ± 0.0088
21,HCC38 BREAST,0.094 ± 0.026
22,HU09 BONE,0.0263 ± 0.0042
23,SAOS2 BONE,0.0527 ± 0.00058
24,MDAMB436 BREAST,0.173 ± 0.016
25,93VU HEADNECK,0.134 ± 0.0064
26,KPD BONE,0.315 ± 0.025
27,SYO1 SYNOVIAL,0.0522 ± 0.0059
28,CAL120 BREAST,0.0962 ± 0.0023
29,HCC1395 BREAST,0.362 ± 0.054
30,SUM149.B1*.S BREAST,0.0972 ± 0.0036

# Same assay, conditions: 500 nM; exposure time: 5 days
row,Test System,surviving fraction
1,C33A CERVIX,0.089 ± 0.021
2,PCI30 HEADNECK,0.0753 ± 0.016
3,HUO3N1 BONE,0.094 ± 0.006
4,T47D BREAST,0.214 ± 0.0067
5,HELA CERVIX,0.017 ± 0.0015
6,NY BONE,0.0307 ± 0.0038
7,CASKI CERVIX,0.0313 ± 0.005
8,COLO320DM LARGE INTESTINE,0.161 ± 0.015
9,MDAMB361 BREAST,0.516 ± 0.046
10,HOSMNG BONE,0.0573 ± 0.0021
11,A549 LUNG,0.172 ± 0.0087
12,CAL51 BREAST,0.0295 ± 0.0005
13,OSHN BONE,0.018
14,MCF7 BREAST,0.333 ± 0.013
15,MDAMB134 BREAST,0.491 ± 0.072
16,NCIH441 LUNG,0.284 ± 0.013
17,OS25HAL BONE,0.0523 ± 0.0029
18,HCC1954 BREAST,0.0592 ± 0.012
19,22RV1 PROSTATE,0.0467 ± 0.0057
20,MDAMB231 BREAST,0.0907 ± 0.0055
21,HCC38 BREAST,0.108 ± 0.0074
22,HU09 BONE,0.0247 ± 0.0015
23,SAOS2 BONE,0.0447 ± 0.0063
24,MDAMB436 BREAST,0.171 ± 0.014
25,93VU HEADNECK,0.135 ± 0.018
26,KPD BONE,0.327 ± 0.011
27,SYO1 SYNOVIAL,0.0456 ± 0.0087
28,CAL120 BREAST,0.0798 ± 0.0061
29,HCC1395 BREAST,0.396 ± 0.088
30,SUM149.B1*.S BREAST,0.091 ± 0.0063

# Same assay, conditions: 1000 nM; exposure time: 5 days
row,Test System,surviving fraction
1,C33A CERVIX,0.0977 ± 0.025
2,PCI30 HEADNECK,0.071 ± 0.0061
3,HUO3N1 BONE,0.1 ± 0.018
4,T47D BREAST,0.226 ± 0.023
5,HELA CERVIX,0.0247 ± 0.00076
6,NY BONE,0.0293 ± 0.0057
7,CASKI CERVIX,0.0303 ± 0.0045
8,COLO320DM LARGE INTESTINE,0.116 ± 0.0099
9,MDAMB361 BREAST,0.546 ± 0.027
10,HOSMNG BONE,0.063 ± 0.0044
11,A549 LUNG,0.179 ± 0.0038
12,CAL51 BREAST,0.0332 ± 0.0027
13,OSHN BONE,0.022 ± 0.001
14,MCF7 BREAST,0.326 ± 0.012
15,MDAMB134 BREAST,0.598 ± 0.077
16,NCIH441 LUNG,0.304 ± 0.02
17,OS25HAL BONE,0.0687 ± 0.017
18,HCC1954 BREAST,0.0653 ± 0.015
19,22RV1 PROSTATE,0.0553 ± 0.0046
20,MDAMB231 BREAST,0.0993 ± 0.0078
21,HCC38 BREAST,0.0823 ± 0.0076
22,HU09 BONE,0.0247 ± 0.0042
23,SAOS2 BONE,0.0557 ± 0.0063
24,MDAMB436 BREAST,0.198 ± 0.018
25,93VU HEADNECK,0.132 ± 0.0017
26,KPD BONE,0.313 ± 0.026
27,SYO1 SYNOVIAL,0.048 ± 0.009
28,CAL120 BREAST,0.0923 ± 0.007
29,HCC1395 BREAST,0.405 ± 0.051
30,SUM149.B1*.S BREAST,0.097 ± 0.0076

# Compound: COCC[n+]1c2c(n(Cc3cnccn3)c1C)C(=O)c1ccccc1C2=O [YM155]
# Experiment: area under dose-response curve of surviving fraction (unscaled, Aref=0) (surviving fraction x log10(nM)); higher = more resistant
# Details: exposure time: 5 days; dose range 0.5-1000 nM
# How it was run: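 Tumour cell lines in 384-well plates were exposed for five days to eight inhibitor concentrations from 0.5 to 1000 nM. Viability was read by CellTiter-Glo luminescence, normalised to DMSO-only wells, in three screens per line. Dose-response survival curves were fitted to surviving fractions by 3-parameter logistic regression in the drc R package. Area under the curve is the unscaled activity area (Aref = 0) over log10 dose.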
row,Test System,area under dose-response curve
1,C33A CERVIX,0.324
2,PCI30 HEADNECK,1.32
3,HUO3N1 BONE,2.22
4,T47D BREAST,1.68
5,HELA CERVIX,1.07
6,NY BONE,2.96
7,CASKI CERVIX,1.37
8,COLO320DM LARGE INTESTINE,2.37
9,MDAMB361 BREAST,1.61
10,HOSMNG BONE,1.76
11,A549 LUNG,1.83
12,CAL51 BREAST,0.772
13,OSHN BONE,0.946
